The values that follow come from patent publication US12168665B2, “Substituted imidazo[l,2-a]pyrazines and pyrazino[l,2-a] pyrimidines as topical agents for dermatological applications” (Genesis Molecular Technologies, Inc., priority 2020, dated 2024).

Data set [1] concerns TCF/LEF reporter activity. Briefly: Wnt/driven TCF/LEF reporter (Luc) activity in HEK293 cell line assay. It is filed as cell-based. As to conditions: TCF/LEF reporter (Luc)-HEK293 cells, LiCl and mouse Wnt3a stimulation, read-out: IC50 value of compounds against TCF/LEF reporter activity. On the procedure:
Assay of Wnt/driven TCF/LEF reporter (Luc) activity in a stably transfected cell line. The Wnt/driven TCF/LEF reporter (Luc) activity in a stably transfected cell line assay was performed at BPS Bioscience (San Diego, CA 92121, USA). In brief, TCF/LEF reporter (Luc)-HEK293 cells are harvested from culture in growth medium and seeded at a density of about 35,000 cells per well into a white clear-bottom 96-well microplate in 80 μL of assay medium. 20 μL of 50 mM LiCl solution in assay medium are added to each well (final concentration 10 mM), and cells are incubated at 37° C. in a CO2 incubator for 16 hours. 10 μL of threefold serial dilution of mouse Wnt3a in assay medium are added to each stimulated well. The plate is incubated at 37° C. in a CO2 incubator for 6 hours. 100 μL of ONE-Step™ Luciferase Assay buffer per well are added and the plate is shaken for 30 min prior to measuring luminescence using a luminometer.
Exemplary compounds, wherein Y is hydrogen, of the present invention were tested for Wnt/driven TCF/LEF reporter (Luc) activity in HEK293 cell line assay. […] The positive control compound for this assay is IWR-1-endo, which is known in the art as a non-CBP/β-catenin Wnt antagonist, which stabilizes Axin-dependent β-catenin destruction (Chen, B., et al., Nat. Chem. Biol. 2009; 5(2):100-107).

Data set [2] has as its system hapten-induced atopic dermatitis-like dermatitis. The note with it: preclinical study (Matsuda-Hirose 2019); cited from earlier work.
For data set [3] the following is noted: animal toxicity studies and clinical studies; cited from earlier work.
Data set [4] relates to CBP/β-catenin (Wnt-driven luciferase activity). Briefly: SuperTOPFLASH cell-based luciferase assay (Hek293, STF1.1). The note with it: Homo sapiens; Hek293 STF1.1 cells; tested at 2.5, 5, 10 and 20 μM. As for the experimental part: SuperTOPFLASH Cell-based Luciferase Assay. Hek-293,STF1.1 cells are maintained in DMEM, 10% FBS, Pen-Strep supplemented with 200 μg/mL G418. On the day prior to assay, cells are split into a white, opaque 96-well plate at 10,000 cells per well in 50 μL of complete medium without G418 (for screening of Wnt-signaling inhibitors, G418 can be left out during screening process). After allowing the cells to stabilize and attach overnight, 40 μL of complete medium (without G418) containing 2.5× final concentration of compound or DMSO control is added to the cells and allowed to incubate for 1 hour at 37° C., 5% CO2 prior to adding […] of a 100 mM LiCl solution prepared in complete medium (without G418). After 24 hours, 100 µL of BrightGlo™ (Promega, Cat. #: G7573) is added to each well and the plate is shaken for 5 minutes prior to reading on the Perkin-Elmer EnVision™ Plate Reader. […]

A short description of data set [5]: Stability by analytical HPLC analysis. Type of data set: physicochemical. As for the experimental part:
Analytical HPLC analysis was performed on an Agilent 1100 HPLC with a Phenomenex Luna C18 (2) column (3 micron, 150×4.6 mm id) at a flow rate of 0.6 mL/min, eluting with a binary solvent system A and B using a 35%-70% B in 20 min and then 70%-95% B in 5 min (gradient elution 1), or 70%-95% B in 25 min and then 95%-100% B in 3 min (gradient elution 2) (A: Milli-Q water with 0.1% TFA; B: CH3CN with 0.1% TFA). NMR spectra were recorded on a Bruker AV-300 300 MHz NMR instrument using DMSO-d6 or CDCl3 with TMS as an internal standard. Mass spectra data was obtained with Bruker Esquire Liquid Chromatography-Ion Trap Mass Spectrometer.
As is readily apparent, compound 6 is stable at room temperature both in a solid form and in organic solvents (e.g., CH3CN, and CH3OH).

For another data set, the system named is human skin. Briefly: Cosmetic evaluation on human skin, topical formulation. It is filed as in vivo. As to conditions: 0.15% wt./wt. topical formulation twice daily, 8 weeks. The text has this: For cosmetic evaluation, compound 6 (0.15% wt./wt.) formulated in an aqueous based vehicle was topically applied twice daily (0.25 g formulation per application) during an 8-week testing period according to the following daytime/nighttime regimen.
During the study, subjects used no other skin care regimen. Prior to application of the test formulation, subjects washed their faces with Purpose cleanser, rinsed and then dry patted their faces. For each daytime and each nighttime application, 0.25 g of the test formulation (2 pumps from an applicator) was then applied to the entire face, around the eyes and onto the neck. Photographs (without any face and eye make-up), and self-assessment was performed before and after the 8-week period.

Structures are written as SMILES. “Also recorded” adds a separate entry of the source. Where two headings read alike, the source gives them in different places.

Turning to `O=C(Nc1cccc2cccnc12)c1ccc(N2C(=O)[C@@H]3[C@H](C2=O)[C@@H]2C=C[C@H]3C2)cc1` [IWR-1-endo, reference compound], the IC50 in data set [1] stood at 0.2 µM.
On to `O=C1[C@H](Cc2ccc(O)cc2)N2C(=O)CCN(C(=O)NCc3ccccc3)[C@H]2CN1Cc1cccc2ccccc12` [ICG-001], for which, in data set [2], the “Effect on hapten-induced atopic dermatitis-like dermatitis” value is recorded as “prevents the emergence of hapten-induced atopic dermatitis-like dermatitis”. Further, the “Safety at effective levels” value in data set [3] was “extremely safe”.
As to `O=C1[C@H](Cc2ccc(O)cc2)N2C(=O)C[C@@H](CO)N(C(=O)NCc3ccccc3)[C@H]2CN1Cc1cccc2ccccc12` [Compound 3, (2S,6S,9aS)—N-benzyl-6-(4-hydroxybenzyl)-2-(hydroxymethyl)-8-(naphthalen-1-ylmethyl)-4,7-dioxohexahydro-2H-pyrazino[1,2-a]pyrimidine-1(6H)-carboxamide], the IC50 was determined as 16 µM in data set [1] (Homo sapiens) and 2.5 µM in data set [4].
As to `O=C1[C@H](Cc2ccc(O)cc2)N2C(=O)[C@H](CO)N(C(=O)NCc3ccccc3)[C@H]2CN1Cc1cccc2ccccc12` [Compound 4, (2S,5S,8a5)-N-benzyl-5-(4-hydroxybenzyl)-2-(hydroxymethyl)-7-(naphthalen-1-ylmethyl)-3,6-dioxohexahydroimidazo[1,2-a]pyrazine-1(5H)-carboxamide], the IC50 in data set [1] (Homo sapiens) worked out at 11.2 µM.
The same measure, in the same setting: under `O=C1[C@H](Cc2ccc(O)cc2)N2C(=O)C[C@H](CO)N(C(=O)NCc3ccccc3)[C@H]2CN1Cc1cccc2ccccc12` [Compound 2, (2R,6S,9aS)—N-benzyl-6-(4-hydroxybenzyl)-2-(hydroxymethyl)-8-(naphthalen-1-ylmethyl)-4,7-dioxohexahydro-2H-pyrazino[1,2-a]pyrimidine-1(6H)-carboxamide] stands over 25 µM; under `O=C1[C@H](Cc2ccc(O)cc2)N2C(=O)[C@@H](CCO)N(C(=O)NCc3ccccc3)[C@H]2CN1Cc1cccc2ccccc12` [Compound 5, (2R,5S,8a5)-N-benzyl-5-(4-hydroxybenzyl)-2-(2-hydroxyethyl)-7-(naphthalen-1-ylmethyl)-3,6-dioxohexahydroimidazo[1,2-a]pyrazine-1(5H)-carboxamide], over 25 µM.
`CCCCCCCCCCCC(=O)OC[C@@H]1CC(=O)N2[C@H](CN(Cc3cccc4ccccc34)C(=O)[C@@H]2Cc2ccc(O)cc2)N1C(=O)NCc1ccccc1` [Compound 6, (2S,6S,9aS)-1-(benzylcarbamoyl)-6-(4-hydroxybenzyl)-8-(naphthalen-1-ylmethyl)-4,7-dioxooctahydro-2H-pyrazino[1,2-a]pyrimidin-2-yl)methyl dodecanoate]: the “Degradation product detected by analytical HPLC” value in data set [5] (after 4 days at room temperature) is reported as “No degradation product”. Besides, in data set [5] (solid form and organic solvents (CH3CN, CH3OH), analytical HPLC), the “Stability at room temperature” value is “stable”. Moreover, the “Improvement of skin appearance (wrinkles, redness)” value in the data set with human skin is “improvement of skin appearance (e.g., reducing the appearance of wrinkles and redness) is achieved; also recorded: Skin improvement (e.g., reducing the extent and appearance of wrinkles) was visible”.
